Measurements taken from PMC12314576, “The Actin‐Binding Prolyl‐Isomerase Par17 Sustains Its Substrate Selectivity by Interdomain Allostery” (Proteins, 2025).
Starred links: 1 amine or outer side, 2 acyl side, 3 side chain; linkers in the order of their positions; H or OH if unused. Residues, ends and D or L forms follow the SMILES beside them. *: point of attachment. pNA = O=[N+]([O-])c1ccc(N*)cc1; Suc = O=C(CCC(=O)[*:2])[*:1]

Columns and labels:
Par17 [1] = molecular target: T1, Par17 (Homo sapiens, UniProt Q9Y237); experiment: NMR titration of substrate peptides to 15N-labeled full-length Par17; type: binding; conditions: 300 μM Par17, KPi pH 6.7, 20°C
T1 construct: full‐length Par17 and the N‐terminus of Par17; GST-His6 (PreScission site) (N, cleaved yes); Gly-Pro remnant of the PreScission site (Gly stands at position 1 in place of Met1); made in house; host or cells: E. coli BL21 (DE3) T1r
T1 sequence (Q9Y237 1-156 isoform Q9Y237-2): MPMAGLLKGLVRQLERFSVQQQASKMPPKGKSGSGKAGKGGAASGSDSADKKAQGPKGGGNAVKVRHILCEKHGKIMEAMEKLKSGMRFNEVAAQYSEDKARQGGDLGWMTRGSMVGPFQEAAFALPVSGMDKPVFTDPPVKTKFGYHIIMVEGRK
Description: The amide signals were assigned and combined chemical shift changes between the signals of free and substrate‐bound isomers were calculated.
For NMR measurements, purified and concentrated proteins in salt‐free buffers were mixed with 10% D2O and 1 μL DSS standard. Spectra were measured on an ultra shield 700‐NMR (Bruker, Billerica, US) with a triple resonance cryoprobe (700 MHz). For recording and processing of data, the software Topspin 3.5 was used. Analysis of spectra was carried out using Cara analysis software 2.3.1 (Rochus L.J. Keller) and/or CcpNmr Analysis 2.3.1 (Department of Molecular and Cell Biology, University of Leicester, UK).
Titration of substrate peptides to ^ 15 N‐labeled full‐length Par17 and the N‐terminus of Par17: The following substrate peptides were diluted in salt‐free 50 mM KPi buffer pH 6.7 to a concentration of 15 mM (Suc: Succinyl, pNA: para‐Nitroanilin):
They were added stepwise to 200 μL of the labeled parvulins (300 μM in 50 mM KPi buffer pH 6.7). Spectra were recorded with the pulse program Best‐TROSY at 20°C. Combined chemical shifts were calculated as described. Microscopic dissociation constant K D was fitted with the following equation (assuming a 1:1 binding model): (4) ∆δ=∆δmax·P+x+KD−P+x+KD^2−4·x·P/2·P
where ∆δmax is the amplitude, P is the protein concentration, X is the concentration of the peptide.
Differences in chemical shift changes could be measured up to 0.001 ppm (error in peak picking). Changes were interpreted as significant if Δ > 0.004 ppm and when appearing consecutively in a linear sequence element.
The microscopic K D describes the binding affinity of the ligand to a single side of an amino acid.

Par14 (Par17Δ1-25) = molecular target: T2, Par14 (Par17Δ1-25) (Homo sapiens, UniProt Q9Y237); experiment: Protease-coupled isomerase assay (PPIase assay) with Par14; type: biochemical; conditions: PBS pH 6.8, 10°C, PPIase 2 μM; for k = kobserved - kthermic, Par14 (Par17Δ1-25): α-chymotrypsin 35 μM, substrate 75 μM, absorbance 390 nm, mean ± SD
T2 construct: Comparison of spectra of full‐length parvulin proteins and PPIase domain; GST-His6 (PreScission site) (N, cleaved yes); made in house; host or cells: E. coli BL21 (DE3) T1r
T2 sequence (Q9Y237 whole entry, stated change not applied, the tested form may be a part): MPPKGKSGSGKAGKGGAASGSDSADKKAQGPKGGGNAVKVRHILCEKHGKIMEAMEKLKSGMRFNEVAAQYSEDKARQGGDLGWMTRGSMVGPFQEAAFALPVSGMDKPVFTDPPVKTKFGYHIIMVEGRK
Description: (§1) To determine the catalytic efficiency and substrate specificity of Par14 and Par17, we performed a protease‐coupled assay. In this assay, the trans form of a para‐nitroaniline (pNA) tagged model substrate is cleaved by chymotrypsin, and the resulting change in absorption at 390 nm due to free pNA is measured. When the model substrate is added to the protease‐containing buffer, all trans‐Xaa‐Pro isomers are immediately cleaved by chymotrypsin. Therefore, the extent of the first signal burst observed in the absorption spectrum correlates with the amount of trans isomers of the model substrate formed during the experimental dead time. The remaining cis‐Xaa substrates now start to isomerize by thermal (in the absence of PPIase) or catalytic reaction (in the presence of PPIase). The newly formed trans‐Xaa substrates are immediately cleaved, and isomerization can thus be monitored over time (Figure 2). Eighteen different substrate peptides with varying amino acids at the Xaa position (Suc‐Ala‐Xaa‐Pro‐Phe‐pNa) were measured to determine the isomerase activity and substrate selectivity of Par14 (Par17Δ1–25), Par17, and the catalytic domain (Par17Δ1–60) (Table S1). The catalytic efficiency is obtained from the observed isomerization curves by calculating the difference between the rate constant in the presence of enzyme and the rate constant obtained from thermal isomerization.
(§2) We determined the isomerase activity using the PPIase assay described by. The lyophilized peptides were dissolved in an adequate volume of 0.5 mM‐LiCl/TFE buffer to obtain a 15 mM stock solution. To achieve a stable cis/trans ratio the mixture was incubated overnight at 4°C. The next day a stock solution of 350 μM α‐chymotrypsin in PBS was incubated on ice for at least 20 min. For measurements without PPIase PBS buffer (pH 6.8) was mixed with α‐chymotrypsin to a final concentration of 35 μM in 1 mL. A baseline was recorded for 5 min (Cary 100Bio UV/Vis spectrophotometer, Varian/Agilent, Santa Clara, US, λ: 390 nm, bandwidth: 1.0 nm, average time between measurements: 0.5 s, temperature: 10°C). After 5 min the substrate peptide was added to a final concentration of 75 μM in 1 mL [59]. The solution was mixed by inverting the cuvette three times and the reaction was recorded for 15 min. Measurements in the presence of PPIase were performed in the same way, except that before the baseline measurement, the appropriate isomerase was added in a final concentration of 2 μM in 1 mL in addition to PBS and α‐chymotrypsin.
(§3) For the data analysis, a mean value of the baseline was subtracted (average of the first 200 data points). The measured values were normalized according to the respective maximum of the measurement. To determine the rate constant, the program graph pad was used, and non‐linear curve fitting was applied for each measurement (exponential, one‐phase association). (1) Y=Y0+Plateau−Y0∙1−e^−K∙x
(§4) where x is the time (min), Y is the absorbance, Y 0 is the absorbance when x = 0, Plateau is the Y value at infinite times, K is the rate constant (min^−1).
(§5) The K cat/K M value was calculated according to Equation (2): (2) kcat/KM=kobs−ktherm/PPIase where k cat/K M is the catalytic efficiency (M^−1 s^−1), k obs, rate constant of the observed reaction (s^−1), k therm is the rate constant of the thermic reaction (s^−1), and [PPIase] is the concentration of PPIase used in the assay (M).
(§6) The obtained data are fitted to Equation (2) using a pseudo first‐order assumption. This is the case, if k obs values behave linearly with rising PPIase concentrations.

[2] = molecular target: T3, PPIase domain (Par17Δ1-60) (Homo sapiens, UniProt Q9Y237); experiment: Protease-coupled isomerase assay (PPIase assay) with the catalytic domain; type: biochemical; conditions: PBS pH 6.8, 10°C, PPIase 2 μM; for k = kobserved - kthermic, PPIase domain (Par17Δ1-60): α-chymotrypsin 35 μM, substrate 75 μM, absorbance 390 nm, mean ± SD
T3 construct: GST-His6 (PreScission site) (N, cleaved yes); made in house; host or cells: E. coli BL21 (DE3) T1r
T3 sequence (Q9Y237 36-131, stated change not applied): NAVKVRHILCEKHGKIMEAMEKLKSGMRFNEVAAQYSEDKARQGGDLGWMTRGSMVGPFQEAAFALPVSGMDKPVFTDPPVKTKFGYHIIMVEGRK
Description: as §1, §2, §3, §4, §5, §6

Par17 [3] = molecular target: T1, Par17; experiment: Protease-coupled isomerase assay (PPIase assay) with Par17; type: biochemical; conditions: for k = kobserved - kthermic, Par17: α-chymotrypsin 35 μM, substrate 75 μM, absorbance 390 nm, mean ± SD
Description: as §1, §2, §3, §4, §5, §6

[4] = Table ST1, (kobs−ktherm)/[PPIase]

| Molecule | Combined chemical shift perturbation of full length Par17, 115M (Par17 [1]; peptide 0,2 mM) | Combined chemical shift perturbation of full length Par17, 119F (Par17 [1]; peptide 0,2 mM) | Combined chemical shift perturbation of full length Par17, 115M (Par17 [1]; peptide 1 mM) | Combined chemical shift perturbation of full length Par17, 116V (Par17 [1]; peptide 1 mM) | Combined chemical shift perturbation of full length Par17, 119F (Par17 [1]; peptide 1 mM) | Combined chemical shift perturbation of full length Par17, 115M (Par17 [1]; peptide 2 mM) | Combined chemical shift perturbation of full length Par17, 116V (Par17 [1]; peptide 2 mM) | Combined chemical shift perturbation of full length Par17, 119F (Par17 [1]; peptide 2 mM) | Combined chemical shift perturbation of full length Par17, 115M (Par17 [1]; peptide 3 mM) | Combined chemical shift perturbation of full length Par17, 116V (Par17 [1]; peptide 3 mM) | Combined chemical shift perturbation of full length Par17, 119F (Par17 [1]; peptide 3 mM) | Combined chemical shift perturbation of full length Par17, 115M (Par17 [1]; peptide 4 mM) | Combined chemical shift perturbation of full length Par17, 116V (Par17 [1]; peptide 4 mM) | Combined chemical shift perturbation of full length Par17, 119F (Par17 [1]; peptide 4 mM) | Combined chemical shift perturbation of full length Par17, 115M (Par17 [1]; peptide 5 mM) | Combined chemical shift perturbation of full length Par17, 119F (Par17 [1]; peptide 5 mM) | k = kobserved - kthermic, Par14 (Par17Δ1-25) (Par14 (Par17Δ1-25)) [min⁻¹] | k = kobserved - kthermic, PPIase domain (Par17Δ1-60) [2] [min⁻¹] | k = kobserved - kthermic, Par17 (Par17 [3]; PBS pH 6.8, 10°C, PPIase 2 μM) [min⁻¹] | Combined chemical shift perturbation of full length Par17, 113G (Par17 [1]; peptide 3 mM) | other results |
| --- | --- | --- | --- | --- | --- | --- | --- | --- | --- | --- | --- | --- | --- | --- | --- | --- | --- | --- | --- | --- | --- |
| C[C@H](NC(=O)CCC(=O)O)C(=O)N[C@@H](CCCCN)C(=O)N1CCC[C@H]1C(=O)N[C@@H](Cc1ccccc1)C(=O)Nc1ccc([N+](=O)[O-])cc1 [Lys, Suc‐Ala‐Lys‐Pro‐Phe‐pNa] | 0,00414271 ppm | 0,00604921 ppm | 0,01818939 ppm | 0,06817833 ppm | 0,02459781 ppm | 0,03362789 ppm | 0,13037308 ppm | 0,04192915 ppm | 0,04495973 ppm | 0,18551846 ppm | 0,05880948 ppm | 0,05828389 ppm | 0,23776807 ppm | 0,07526515 ppm | 0,06478417 ppm | 0,08126177 ppm | 0.412 ± 0.014 | 0.442 ± 0.006 | 0.33 ± 0.012 | – | k cat/K M of Par17, times higher than for Leu‐Pro, Gln‐Pro or His‐Pro peptides (Par17 [3]; ratio of k cat/K M values): approximately 10 times |
| C[C@H](NC(=O)CCC(=O)O)C(=O)NCC(=O)N1CCC[C@H]1C(=O)N[C@@H](Cc1ccccc1)C(=O)Nc1ccc([N+](=O)[O-])cc1 [Gly, Suc‐Ala‐Gly‐Pro‐Phe‐pNa] (Suc-AGPF-pNA) | – | – | – | – | – | – | – | – | 0,06 ppm | 0,302 ppm | 0,084 ppm | – | – | – | 0,081 ppm | 0,113 ppm | 0.390 ± 0.457 | 0.275 ± 0.214 | <0.01 ± 0.029 | 0,116 ppm | Combined chemical shift perturbation of full length Par17, 113G (Par17 [1]; peptide 0,35 mM): 0,014 ppm; Combined chemical shift perturbation of full length Par17, 116V (Par17 [1]; peptide 0,35 mM): 0,038 ppm; Combined chemical shift perturbation of full length Par17, 119F (Par17 [1]; peptide 0,35 mM): 0,012 ppm; Combined chemical shift perturbation of full length Par17, 113G (Par17 [1]; peptide 5 mM): 0,157 ppm; Combined chemical shift perturbation of full length Par17, 116V (Par17 [1]; peptide 5 mM): 0,412 ppm; Combined chemical shift perturbation of full length Par17, 113G (Par17 [1]; peptide 1,5 mM): 0,066 ppm; Combined chemical shift perturbation of full length Par17, 115M (Par17 [1]; peptide 1,5 mM): 0,035 ppm; Combined chemical shift perturbation of full length Par17, 116V (Par17 [1]; peptide 1,5 mM): 0,173 ppm; Combined chemical shift perturbation of full length Par17, 119F (Par17 [1]; peptide 1,5 mM): 0,05 ppm |
| C[C@H](NC(=O)CCC(=O)O)C(=O)N[C@@H](CCC(=O)O)C(=O)N1CCC[C@H]1C(=O)N[C@@H](Cc1ccccc1)C(=O)Nc1ccc([N+](=O)[O-])cc1 [Glu, Suc–Ala–Glu–Pro–Phe–pNa] (Suc-AEPF-pNA) | 0,01409 ppm | 0,02147 ppm | 0,06465 ppm | 0,12599 ppm | 0,0896 ppm | 0,10754 ppm | 0,21191 ppm | 0,14351 ppm | 0,13595 ppm | 0,27245 ppm | 0,18213 ppm | 0,16135 ppm | 0,32999 ppm | 0,22445 ppm | – | – | 0.267 ± 0.011 | 0.114 ± 0.074 | <0.01 ± 0.029 | 0,17998 ppm | Combined chemical shift perturbation of full length Par17, 113G (Par17 [1]; peptide 0,2 mM): 0,02117 ppm; Combined chemical shift perturbation of full length Par17, 116V (Par17 [1]; peptide 0,2 mM): 0,03056 ppm; Combined chemical shift perturbation of full length Par17, 113G (Par17 [1]; peptide 1 mM): 0,08535 ppm; Combined chemical shift perturbation of full length Par17, 113G (Par17 [1]; peptide 2 mM): 0,14414 ppm; Combined chemical shift perturbation of full length Par17, 113G (Par17 [1]; peptide 4 mM): 0,21636 ppm |
| Suc-Ala-Ser-Pro-Phe-pNa [model substrate peptide, Xaa = Ser] | – | – | – | – | – | – | – | – | – | – | – | – | – | – | – | – | 0.332 ± 0.054 | 0.327 ± 0.273 | <0.01 ± 0.098 | – | kcat/KM, Par14 (Par17Δ1-25) (Par14 (Par17Δ1-25); [4]): 2.7 M^-1·s^-1 · 10^3; kcat/KM, PPIase domain (Par17Δ1-60) [2, 4]: 2.7 M^-1·s^-1 · 10^3; kcat/KM, Par17 (Par17 [3]; Table ST1, (kobs−ktherm)/[PPIase], PPIase 2 μM, PBS pH 6.8, 10°C): <0.1 M^-1·s^-1 · 10^3 |
